Assay results reported in patent US20210100777A1, “HEAT SHOCK PROTEIN (HSP) INHIBITION AND MONITORING EFFECTIVENESS THEREOF” (H. LEE MOFFITT CANCER CENTER AND RESEARCH INSTITUTE, INC., priority 2013, published 2021).

Experiments:
[1] = test system: HSPs in 8226/LR5 cells; assay: DI-MRM relative quantification of HSPs after 17-DMAG (Example 2); assay type: cell-based, human; conditions: for CDC37 Fold Change, DI-MRM / HS90A Fold Change, DI-MRM / HS90B Fold Change, DI-MRM / HSP7C Fold Change, DI-MRM / HSP7E Fold Change, DI-MRM / HSP71 Fold Change, DI-MRM / HSP74 Fold Change, DI-MRM / HSPA5 Fold Change, DI-MRM / HSP90α Fold Change, DI-MRM: 8226/LR5, 50 nM, 24 hrs vs. control
Procedure: Synthesis and DI MRM of Standard Peptides. Standard peptides were synthesized and characterized as described previously (Remily-Wood et al., Proteomics Clin. Appl. 5:383-96 (2011)). An automated chip-based nanoelectrospray ion source, (NanoMate100, Advion BioSciences, Ithaca, N.Y.), was mounted on a triple quadrupole mass spectrometer (TSQ Vantage, Thermo, San Jose, Calif.). […] (SEQ ID NO:17) were diluted to 1 μM in 50% aqueous ACN with 0.1% formic acid. For synthetic peptide infusion, the spray voltage was tuned between 1.5 and 1.9 kV for stable ion signal. The gas pressure was set to 0.3 psi. Data were acquired at 20 ms per transition for 2 minutes using m/z 0.002 scan widths. The quadrupole resolution values were modulated from 0.2 to 0.7. […]
(§1) Cell Culture, Lysis, and HSP Sample Preparation for Mass Spectrometry. RPMI-8226 and 8226/LR5 cells were maintained as previously described (Bellamy et al., Cancer Res. 51:995-1002 (1991); Remily-Wood et al., Proteomics Clin. Appl. 5:383-96 (2011)). The heat shock protein 90 inhibitor, 17-desmethoxy-17-N,N-dimethylaminoethylamino-geldanamycin (17-DMAG), was dissolved in DMSO (100 μM stock). Based on prior IC50 measurements, the RPMI-8226 cells were treated with 100 nM 17-DMAG for 24 hours, and 8226/LR5 cells were treated with 50 nM 17-DMAG. Cells (n=10^6) were lysed using in aqueous 100 mM ammonium bicarbonate containing 8M urea for protein denaturation. Protein concentrations were measured by Bradford assays; consistent aliquots of total protein (380 ng) were injected for LC-MRM, and the same solutions were used for DI-MRM. Digestion, addition of SIS peptides, and mass spectrometry sample preparation were performed as described for standard proteins.
(§2) Calculation of Correction Factors to Account for Interference in DI MRM. […] To evaluate the ability to eliminate these contributions, correction factors were calculated based on LC-MRM data using the following set of equations (Equations 1 and 2): […]

[2] = test system: HSPs in RPMI-8226 cells; assay: as above; assay type: cell-based, human; conditions: RPMI-8226, 100 nM
Procedure: Synthesis and DI MRM of Standard Peptides. Standard peptides were synthesized and characterized as described previously (Remily-Wood et al., Proteomics Clin. Appl. 5:383-96 (2011)). An automated chip-based nanoelectrospray ion source, (NanoMate100, Advion BioSciences, Ithaca, N.Y.), was mounted on a triple quadrupole mass spectrometer (TSQ Vantage, Thermo, San Jose, Calif.). […] (SEQ ID NO:17) were diluted to 1 μM in 50% aqueous ACN with 0.1% formic acid. For synthetic peptide infusion, the spray voltage was tuned between 1.5 and 1.9 kV for stable ion signal. The gas pressure was set to 0.3 psi. Data were acquired at 20 ms per transition for 2 minutes using m/z 0.002 scan widths. The quadrupole resolution values were modulated from 0.2 to 0.7.
Standard Protein DI-MRM. As described below, a dilution series of BSA digest was created in 50% aqueous acetonitrile with 0.1% formic acid spiked with five synthetic peptide standards (20 nM). In DI-MRM, the spray voltage was set to 1.6 kV, and the gas pressure was set to 0.3 psi. Peptide selection was performed using Q1=0.4; fragment ion selection was performed using Q3=0.7. Transitions (n=36) were monitored for 20 ms each with scan width set to 0.002; data were acquired for 5 minutes.
as §1, §2

[3] = test system: vemurafenib resistant melanoma cell lines grown as 3D collagen implanted spheroids; assay: 3D spheroid assay; assay type: cell-based; conditions: 1 μM, 144 hours
Procedure: 3D spheroid assays. Melanoma spheroids were prepared using the liquid overlay method (Smalley et al. Mol Cancer Ther. 5: 1136-1144 (2006)). Spheroids were treated for 144 hours with either vehicle or 1 μM XL888 before being washed (3 times in media) and treated with calcein-AM and ethidium bromide (Molecular Probes, Eugene, Oreg.) for 1 hour at 37° C., to according to the manufacturer's instructions. Pictures of the invading spheroids were taken using a Nikon-300 inverted fluorescence microscope.

[4] = all LC-MRM transitions, interference-corrected
[5] = noise corrected, only transitions below 40% interference
[6] = 24 hrs vs. control, all LC-MRM transitions, interference-corrected
[7] = 24 hrs vs. control, noise corrected, only transitions below 40% interference

SMILES: CO[C@H]1/C=C\C=C(/C)C(=O)NC2=CC(=O)C(NCCN(C)C)=C(C[C@@H](C)C[C@H](OC)[C@H](O)[C@@H](C)/C=C(\C)[C@@H]1OC(N)=O)C2=O [17-DMAG, 17-Dimethylaminoethylamino-17-demethoxygeldanamycin]
- CDC37 Fold Change, DI-MRM [1, 4]: 1.24
- HS90A Fold Change, DI-MRM [1, 4]: 1.12
- HS90B Fold Change, DI-MRM [1, 4]: 1.23
- HSP7C Fold Change, DI-MRM [1, 4]: 0.94
- HSP7E Fold Change, DI-MRM [1, 4]: 0.93
- HSP71 Fold Change, DI-MRM [1, 4]: 5.50
- HSP74 Fold Change, DI-MRM [1, 4]: 1.33
- HSPA5 Fold Change, DI-MRM [1, 4]: 0.86
- CDC37 Fold Change, DI-MRM [1, 5]: 1.35
- HS90A Fold Change, DI-MRM [1, 5]: 1.14
- HS90B Fold Change, DI-MRM [1, 5]: 1.23
- HSP7C Fold Change, DI-MRM [1, 5]: 1.14
- HSP7E Fold Change, DI-MRM [1, 5]: 1.05
- HSP71 Fold Change, DI-MRM [1, 5]: 5.51
- HSP74 Fold Change, DI-MRM [1, 5]: 1.41
- HSPA5 Fold Change, DI-MRM [1, 5]: 0.90
- HSP90α Fold Change, DI-MRM ([1]; y3 (Least Interference)): 0.76
- HSP90α Fold Change, DI-MRM ([1]; y3-y5 (DI-MRM Interference-Corrected)): 1.14
- HSP90α Fold Change, DI-MRM ([1]; y3-y5 (Selected Transitions)): 1.13
- HSP90α Fold Change, DI-MRM ([1]; y3-y6 (DI-MRM Interference-Corrected)): 1.12
- changes in expression of HSP90α, DI-MRM ([1]; 8226/LR5, 24 hours after treatment): 1.1 fold
- HSP90α Fold Change, DI-MRM ([2]; 24 hrs after treatment vs. control, ALLFVPR y3-y6 (All LC-MRM Transitions)): 1.86
- CDC37 Fold Change, DI-MRM [2, 6]: 1.08
- HS90A Fold Change, DI-MRM [2, 6]: 1.86
- HS90B Fold Change, DI-MRM [2, 6]: 1.46
- HSP7C Fold Change, DI-MRM [2, 6]: 1.52
- HSP7E Fold Change, DI-MRM [2, 6]: 0.87
- HSP71 Fold Change, DI-MRM [2, 6]: 6.10
- HSP74 Fold Change, DI-MRM [2, 6]: 1.22
- HSPA5 Fold Change, DI-MRM [2, 6]: 3.43
- CDC37 Fold Change, DI-MRM [2, 7]: 1.20
- HS90A Fold Change, DI-MRM [2, 7]: 1.85
- HS90B Fold Change, DI-MRM [2, 7]: 1.46
- HSP7C Fold Change, DI-MRM [2, 7]: 1.84
- HSP7E Fold Change, DI-MRM [2, 7]: 0.81
- HSP71 Fold Change, DI-MRM [2, 7]: 6.10
- HSP74 Fold Change, DI-MRM [2, 7]: 1.37
- HSPA5 Fold Change, DI-MRM [2, 7]: 2.53
- HSP90α Fold Change, DI-MRM ([2]; 24 hrs vs. control, y3 (Least Interference)): 2.96
- HSP90α Fold Change, DI-MRM ([2]; 24 hrs vs. control, y3-y5 (DI-MRM Interference-Corrected)): 1.85
- HSP90α Fold Change, DI-MRM ([2]; 24 hrs vs. control, y3-y5 (Selected Transitions)): 1.85
- HSP90α Fold Change, DI-MRM ([2]; 24 hrs vs. control, y3-y6 (DI-MRM Interference-Corrected)): 1.87

SMILES: CC[C@@H](C)Nc1cc(C(=O)N[C@@H]2C[C@H]3CC[C@@H](C2)N3c2ccc(C(=O)C3CC3)cn2)c(C)cc1C(N)=O [XL888, 5-((R)-sec-butylamino)-N1-((1R,3s,5S)-8-(5-(cyclopropanecarbonyl)pyridin-2-yl)-8-azabicyclo[3.2.1]octan-3-yl)-2-methylterephthalamide]
- cell death in 3D spheroids [3]: effective at inducing cell death
